Experiments:
[1] = test system: DAOY human glioma cells (high MGMT level); test: Colony formation assay, DAOY cells; format: cell-based; conditions: 4-day cycle
Experimental: (§1) As detailed below, DAOY human glioma cells (high MGMT level), A375 human melanoma cells (high MGMT level), and LOX human melanoma cells (low MGMT level) in in vitro colony formation assays were treated with different dosing schedules of TMZ. In brief, sub-confluent plates containing cells (DAOY, A375, or LOX) were trypsinized, then rinsed and suspended in appropriate culture medium before seeding in 6-well plates. Cells were incubated for 18-24 hours at 37° C. to allow cells to attach. Graded concentrations of TMZ or equivalent volumes of diluents were added in triplicate. Each pulse of TMZ lasted for 24 hours. For example, cells receiving continuous daily dosing of TMZ were treated with TMZ-containing medium every 24 hours throughout the cycle. Following the last pulse of TMZ in a cycle, TMZ-containing medium was removed and replaced with fresh medium without TMZ for the rest of the incubation period. Resulting colonies were stained with Crystal Violet solution and quantified using ImagePro plus software (Empire Imaging Systems, Inc. Asbury, N.J.).

[2] = test system: A375 human melanoma cells (high MGMT level); test: Colony formation assay, A375 cells; format: cell-based; conditions: 4-day cycle
Experimental: as §1

[3] = test system: LOX human melanoma cells (low MGMT level); test: Colony formation assay, LOX cells; format: cell-based
Experimental: as §1
In the 4-day cycle, illustrated in FIG. 3A, TMZ was administered according to one of two different dosing schedules: (i) continuous daily dosing (Day 1-4); or (ii) single pulse dosing (Day 1); where the total amount of TMZ administered was 0, 16, 31, 62, or 124 μg.
In the 8-day cycle, illustrated in FIG. 3B, TMZ was administered according to one of three different dosing schedules: (i) continuous daily dosing (Day 1-8); (ii) dosing for 2 consecutive days (Day 1-2); or (ii) intermittent dosing for 2 days (Day 1, Day 5); where the total amount of TMZ administered was 0, 31, 62, 124, or 248 μg.

[4] = test system: DAOY human glioma xenograft tumors; test: DAOY human glioma xenograft tumor model; format: in vivo, nude mice; conditions: two 15-day cycles
Experimental: (§2) In brief, female athymic nude mice or female SCID mice (4-6 week old) from Charles River Laboratories were maintained in a VAF-barrier facility. Animal procedures were performed in accordance with the rules set forth in the N.I.H. guide for the care and use of laboratory animals.
(§3) DAOY human glioma cells (5×10^6), LOX human melanoma cells (5×10^5), and A375 human melanoma cells (5×10^6) were inoculated subcutaneously in the right flank of the animal (LOX in SCID mice; DAOY and A375 in nude mice). To facilitate in vivo growth, Matrigel was mixed with DAOY and A375 cells (50%) before inoculation. When tumor volumes were approximately 100 mm^3, animals were randomized and grouped (n=10). Tumor volumes and body weight were measured twice weekly using Labcat™ computer application (Innovative Programing Associates, N.J.). Tumor volumes were calculated by the formula (W×L×H)×π×⅙.
(§4) TMZ was administered by intraperitoneal injections with 20% HPβCD (containing 1% DMSO) as vehicle. Mice bearing xenograft tumors of DAOY human glioma cells, a high MGMT level cell line, were treated with one of three different dosing schedules. In a 15-day cycle, under same total dose levels, mice received one of the following TMZ treatments: (i) day 1 through day 15; (ii) day 1 through day 5; or (iii) intermittently on day 1, 4, 7, 10, and 13. For all dosing schedules, three different dose levels (180, 270, and 405 mg/kg total) were used.
FIG. 5A illustrates the mean tumor growth curves of DAOY human glioma xenograft tumors following TMZ treatment for two consecutive 15-day cycles of continuous daily dosing (Day 1-15 (first cycle), Day 16-30 (second cycle)); where the total dose of TMZ administered was 0, 360, 540, or 810 mg per kg (mpk). FIG. 5B illustrates the mean tumor growth curves of DAOY human glioma xenograft tumors following TMZ treatment for two consecutive 15-day cycles of dosing for 5 consecutive days (Day 1-5 (first cycle); Day 16-20 (second cycle)); where the total dose of TMZ administered was 0, 360, 540, or 810 mpk. FIG. 5C illustrates mean tumor growth curves of DAOY human glioma xenograft tumors following TMZ treatment for two consecutive 15-day cycles of intermittent dosing for 5 days (Day 1, 4, 7, 10, 13 (first cycle); Day 16, 19, 22, 25, 28 (second cycle)); where the total dose of TMZ administered was 0, 360, 540, or 810 mpk.

[5] = test system: A375 human melanoma xenograft tumors; test: A375 human melanoma xenograft tumor model; format: in vivo, nude mice; conditions: 15-day cycle
Experimental: as §2, §3, §4
as §4, with “Mice” for “TMZ was administered by intraperitoneal injections with 20% HPβCD (containing 1% DMSO) as vehicle. Mice”, “A375” for “DAOY”, “melanoma” for “glioma”, “with” for “with one of”, “Similar to the schedules used for the DAOY model, in” for “In”

[6] = test system: LOX human melanoma xenograft tumors; test: LOX human melanoma xenograft tumor model; format: in vivo, SCID mice; conditions: for % Inhibition compared to tumor treated with vehicle: 12-day cycle; for TGI: SCID mice, intermediate dose 72 mg/kg total
Experimental: as §2, §3, §4
Mice bearing xenograft tumors of LOX human melanoma cells, a low MGMT level cell line, were treated with TMZ using two different schedules. The same total dose was administered evenly divided over the course of either: (i) 4 or (ii) 12 days. TMZ was administered through intraperitoneal injection using cumulative total dose levels of 36, 72 or 144 mg/kg.
The efficacy of TMZ was schedule dependent, with greater efficacy seen when dosing for 4 consecutive days.

**Q.** With `Cn1nnc2c(C(N)=O)ncn2c1=O` [TMZ, 3,4-dihydro-3-methyl-4-oxoimidazo[5,1-d]-as-tetrazine-8-carboxamide] as the compound, how does the “% Inhibition compared to untreated cells” value ([1]; continuous daily dosing Day 1-4 (¼ total TMZ/day), total TMZ 93 μg) read?
**A.** −8%

**Q.** What about the “% Inhibition compared to untreated cells” value ([1]; single pulse dosing Day 1, total TMZ 93 μg) of the same compound?
**A.** −37%

**Q.** And the “% Inhibition compared to untreated cells” value ([1]; single pulse dosing Day 1, total TMZ 186 μg)?
**A.** 20%

**Q.** And the “% Inhibition compared to untreated cells” value ([1]; single pulse dosing Day 1, total TMZ 373 μg)?
**A.** 75%

**Q.** What about the “% Inhibition compared to untreated cells” value ([2]; continuous daily dosing Day 1-4 (¼ total TMZ/day), total TMZ 62 μg) of the same compound?
**A.** 17.4%

**Q.** And the “% Inhibition compared to untreated cells” value ([2]; single pulse dosing Day 1, total TMZ 62 μg)?
**A.** 76%

**Q.** And the “% Inhibition compared to untreated cells” value ([2]; single pulse dosing Day 1, total TMZ 124 μg)?
**A.** 88%

**Q.** What about the “% Inhibition compared to untreated cells” value ([2]; single pulse dosing Day 1, total TMZ 249 μg) of the same compound?
**A.** 96%

**Q.** And the “% Inhibition compared to untreated cells” value ([3]; 4-day cycle, continuous daily dosing Day 1-4 (¼ total TMZ/day), total TMZ 16 μg)?
**A.** 7%

**Q.** And the “% Inhibition compared to untreated cells” value ([3]; 4-day cycle, single pulse dosing Day 1, total TMZ 16 μg)?
**A.** 66%

**Q.** And the “% Inhibition compared to untreated cells” value ([3]; 4-day cycle, single pulse dosing Day 1, total TMZ 31 μg)?
**A.** 87%

**Q.** And the “% Inhibition compared to untreated cells” value ([3]; 4-day cycle, single pulse dosing Day 1, total TMZ 62 μg)?
**A.** 84%

**Q.** And the “% Inhibition compared to untreated cells” value ([3]; 8-day cycle, continuous daily dosing Day 1-8 (⅛ total TMZ/day), total TMZ 31 μg)?
**A.** −5%

**Q.** What about the “% Inhibition compared to untreated cells” value ([3]; 8-day cycle, dosing for 2 consecutive days Day 1, Day 2 (½ total TMZ/day), total TMZ 31 μg) of the same compound?
**A.** 45%

**Q.** What about the “% Inhibition compared to untreated cells” value ([3]; 8-day cycle, dosing for 2 consecutive days Day 1, Day 2 (½ total TMZ/day), total TMZ 62 μg) of the same compound?
**A.** 92%

**Q.** What about the “% Inhibition compared to untreated cells” value ([3]; 8-day cycle, dosing for 2 consecutive days Day 1, Day 2 (½ total TMZ/day), total TMZ 124 μg) of the same compound?
**A.** 98%

**Q.** What about the “% Inhibition compared to untreated cells” value ([3]; 8-day cycle, intermittent dosing for 2 days Day 1, Day 5 (½ total TMZ/day), total TMZ 31 μg) of the same compound?
**A.** 78%

**Q.** What about the “% Inhibition compared to untreated cells” value ([3]; 8-day cycle, intermittent dosing for 2 days Day 1, Day 5 (½ total TMZ/day), total TMZ 62 μg) of the same compound?
**A.** 98%

**Q.** And the “% Inhibition compared to untreated cells” value ([3]; 8-day cycle, intermittent dosing for 2 days Day 1, Day 5 (½ total TMZ/day), total TMZ 124 μg)?
**A.** 99%

**Q.** And the “% Inhibition compared to tumor treated with vehicle” value (from here on “% Inhibition … with vehicle”) ([4]; continuous dosing Day 1-30, 12 mpk per pulse, total 360 mpk, dose intensity 1, i.p.)?
**A.** 66%

**Q.** And the “% Inhibition … with vehicle” value ([4]; dosing for 5 consecutive days Day 1-5, Day 16-20, 54 mpk per pulse, total 540 mpk, dose intensity 1.5, i.p.)?
**A.** 118%

**Q.** What about the “% Inhibition … with vehicle” value ([4]; dosing for 5 consecutive days Day 1-5, Day 16-20, 81 mpk per pulse, total 810 mpk, dose intensity 2.25, i.p.) of the same compound?
**A.** 124%

**Q.** And the “% Inhibition … with vehicle” value ([4]; intermittent dosing Day 1, 4, 7, 10, 13, 16, 19, 22, 25, 28, 54 mpk per pulse, total 540 mpk, dose intensity 1.5, i.p.)?
**A.** 85%

**Q.** And the “% Inhibition … with vehicle” value ([4]; intermittent dosing Day 1, 4, 7, 10, 13, 16, 19, 22, 25, 28, 81 mpk per pulse, total 810 mpk, dose intensity 2.25, i.p.)?
**A.** 117%

**Q.** What about the “% Inhibition … with vehicle” value ([5]; continuous daily dosing Day 1-15, 12 mpk per pulse, total 180 mpk, dose intensity 1, i.p.) of the same compound?
**A.** 34%

**Q.** What about the “% Inhibition … with vehicle” value ([5]; dosing for 5 consecutive days Day 1-5, 54 mpk per pulse, total 270 mpk, dose intensity 1.5, i.p.) of the same compound?
**A.** 29%

**Q.** What about the “% Inhibition … with vehicle” value ([5]; dosing for 5 consecutive days Day 1-5, 81 mpk per pulse, total 405 mpk, dose intensity 2.25, i.p.) of the same compound?
**A.** 68%

**Q.** And the “% Inhibition … with vehicle” value ([5]; intermittent dosing Day 1, 4, 7, 10, 13, 54 mpk per pulse, total 270 mpk, dose intensity 1.5, i.p.)?
**A.** 58%

**Q.** What about the “% Inhibition … with vehicle” value ([5]; intermittent dosing Day 1, 4, 7, 10, 13, 81 mpk per pulse, total 405 mpk, dose intensity 2.25, i.p.) of the same compound?
**A.** 73%

**Q.** And the “% Inhibition … with vehicle” value ([6]; continuous daily dosing Day 1-12, 3 mpk per pulse, total 36 mpk, dose intensity 1, i.p.)?
**A.** 37%

**Q.** And the “% Inhibition … with vehicle” value ([6]; dosing for 4 consecutive days Day 1-4, 18 mpk per pulse, total 72 mpk, dose intensity 2, i.p.)?
**A.** 88%

**Q.** What about the “% Inhibition … with vehicle” value ([6]; dosing for 4 consecutive days Day 1-4, 36 mpk per pulse, total 144 mpk, dose intensity 4, i.p.) of the same compound?
**A.** 94%

**Q.** What about the TGI ([6]; 4-day treatment schedule) of the same compound?
**A.** 88%

**Q.** And the TGI ([6]; 12-day schedule)?
**A.** 50%

Reference: patent publication US20060100188A1, “Treatment methods” (priority 2004, published 2006)
